Test results: patent US5414006A, “Arylalkoxythiocoumarins, the preparation thereof and therapeutic compositions containing these” (BASF Aktiengesellschaft, priority 1992, dated 1995)

How the values were obtained:
MAO A = target: T1, MAO A (Rattus norvegicus, UniProt P21396); assay: MAO A inhibition in dilute rat brain homogenate; format: biochemical; conditions: 14C-phenylethylamine or 14C-tryptamine 0.4 μmol/l, 37° C., 20 min
T1 construct: from tissue; host or cells: rat brain homogenate
T1 sequence (P21396 1-526): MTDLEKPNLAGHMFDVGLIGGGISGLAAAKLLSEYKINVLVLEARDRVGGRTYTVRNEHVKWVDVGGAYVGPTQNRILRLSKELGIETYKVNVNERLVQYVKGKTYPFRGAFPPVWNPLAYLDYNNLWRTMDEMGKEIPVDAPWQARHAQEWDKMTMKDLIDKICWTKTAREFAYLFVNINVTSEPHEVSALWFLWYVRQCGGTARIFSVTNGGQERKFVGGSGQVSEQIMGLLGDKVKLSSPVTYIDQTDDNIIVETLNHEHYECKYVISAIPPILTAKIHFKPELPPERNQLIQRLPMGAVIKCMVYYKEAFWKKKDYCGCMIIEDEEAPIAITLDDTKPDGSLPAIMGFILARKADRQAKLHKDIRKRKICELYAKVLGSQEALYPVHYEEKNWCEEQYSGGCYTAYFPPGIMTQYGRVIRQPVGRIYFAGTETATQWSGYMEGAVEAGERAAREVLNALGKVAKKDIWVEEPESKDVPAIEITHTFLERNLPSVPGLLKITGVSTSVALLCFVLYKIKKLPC
Description: (§1) The MAO-inhibiting activity of the compounds according to the invention can be determined using standard methods. Thus, monoamine oxidases A and B were determined in dilute rat brain homogenate to which test substances in various concentrations and ^14 C-phenylethylamine or ^14 C-tryptamine in a concentration of 0.4 μmol/l were added. This mixture was incubated at 37° C. for 20 min.
(§2) The reaction was then stopped with 0.1 normal HCl, and the products were determined after extraction in a toluene scintillator (PPO+POPOP in toluene). The blank was determined on a similar mixture with an incubation time of 0 min.
(§3) The median inhibitory concentration (IC50) was calculated by linear regression after logit-log transformation from the values for the inhibition at the various concentrations relative to the control.

MAO B = target: T2, MAO B (Rattus norvegicus, UniProt P19643); assay: MAO B inhibition in dilute rat brain homogenate; format: biochemical; conditions: 20 min; for IC50: dilute rat brain homogenate, 14C-phenylethylamine or 14C-tryptamine 0.4 μmol/l, 37° C.; for MAO A / MAO B IC50 ratio: selectivity for MAO B over MAO A, rat brain homogenate
T2 construct: from tissue; host or cells: rat brain homogenate
T2 sequence (P19643 1-520): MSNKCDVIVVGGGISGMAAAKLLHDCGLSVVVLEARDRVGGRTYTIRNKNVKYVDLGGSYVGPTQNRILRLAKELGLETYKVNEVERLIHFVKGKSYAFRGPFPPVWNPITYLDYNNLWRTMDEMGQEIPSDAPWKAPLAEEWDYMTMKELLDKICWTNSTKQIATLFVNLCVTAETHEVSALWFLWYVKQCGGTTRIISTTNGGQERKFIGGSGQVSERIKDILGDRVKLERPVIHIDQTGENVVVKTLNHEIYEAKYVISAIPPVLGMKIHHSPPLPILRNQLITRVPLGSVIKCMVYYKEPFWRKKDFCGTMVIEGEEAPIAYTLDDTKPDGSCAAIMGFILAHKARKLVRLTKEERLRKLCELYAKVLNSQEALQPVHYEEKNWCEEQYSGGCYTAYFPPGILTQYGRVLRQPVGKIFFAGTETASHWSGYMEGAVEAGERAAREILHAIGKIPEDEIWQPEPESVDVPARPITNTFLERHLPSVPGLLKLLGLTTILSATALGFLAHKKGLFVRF
Description: as §1, §2, §3

IC50 (MAO A) | IC50 (MAO B) | MAO A / MAO B IC50 ratio (MAO B) | Structure (SMILES)
> 10000 nM | 1 nM | > 10,000 | Cc1c(C)c2ccc(OCc3nnc(C(C)C)s3)cc2oc1=S [Example 1, 3,4-Dimethyl-7-(2-isopropyl-1,3,4-thiadiazol-5-ylmethoxy)-2-thiocoumarin]
≥ 10000 nM | 2 nM | > 5000 | CCCc1nnc(COc2ccc3c(C)c(C)c(=S)oc3c2)s1 [Example 4, 3,4-Dimethyl-7-(2-n-propyl-1,3,4-thiadiazol-5-ylmethoxy)-2-thiocoumarin]
> 10000 nM | 3 nM | > 3333 | Cc1c(C)c2cc(Cl)c(OCc3nnc(C(C)C)s3)cc2oc1=S [Example 13, 6-Chloro-3,4-dimethyl-7-(2-isopropyl-1,3,4-thiadiazol-5-ylmethoxy)-2-thiocoumarin]

Further lines, the compound ahead of its results:

Structure (SMILES) | IC50 (MAO A) | IC50 (MAO B) | MAO A / MAO B IC50 ratio (MAO B)
Cc1c(C)c2ccc(OCc3csc(C(C)C)n3)cc2oc1=S [Example 2, 3,4-Dimethyl-7-(2-isopropylthiazol-4-ylmethoxy)-2-thiocoumarin] | > 10000 nM | 3 nM | > 3333
Cc1nnc(COc2ccc3c(C)c(C)c(=S)oc3c2)o1 [Example 3, 3,4-Dimethyl-7-(2-methyl-1,3,4-oxadiazol-5-ylmethoxy)-2-thiocoumarin] | > 10000 nM | 10 nM | > 1000
CC(C)c1ccc(COc2ccc3ccc(=S)oc3c2)cc1 [Example 12, 7-(4-Isopropylbenzyloxy)-2-thiocoumarin] | ≥ 10000 nM | 3 nM | > 3333
Cc1c(C)c2cc(Cl)c(OCc3nnc(C4CC4)s3)cc2oc1=S [Example 14, 6-Chloro-3,4-dimethyl-7-(2-cyclopropyl-1,3,4-thiadiazol-5-ylmethoxy)-2-thiocoumarin] | > 10000 nM | 6 nM | > 1667
